From US20130196406A1, “NOVEL PROTEIN-POLYMER NANOCAPSULES” (University of Connecticut, priority 2012, published 2013)

Columns and labels:
[1] = molecular target: T1, Hb-PAA-1k-6 nanocapsule (bovine met-hemoglobin conjugated to polyacrylic acid, synthesized at pH 6) (Bos taurus, UniProt P01966+P02070); assay: Peroxidase-like activity, Michaelis-Menten kinetics (guaiacol oxidation by H2O2, 470 nm), Hb-PAA-1k-6; assay type: biochemical; details: 1 μM Hb, 2.5 mM guaiacol, 1 mM H2O2
T1 construct: peroxidase-like activity with guaiacol/H2O2
Procedure: (§1) FIG. 5 provides Lineweaver-Burk plots for the peroxidase-like activity of Hb-PAA conjugates. A) Peroxidase-like activity for the 1 μM of Hb-PAA synthesized at pH 6.0. B) Peroxidase-like activity for 1 μM Hb-PAA synthesized at pH 7.0. All experiments were done in the presence of 1 μM Hb, 2.5 mM guaiacol and 1 mM H2O2.
(§2) Polyacrylic acid (PAA) (8000 Da) was purchased from sigma chemical Co (St. Louis, Mo.). The PAA stock solution was made by mixing 1.32 gm of 45% (w/w) PAA in 3 ml of 20 mM Na2HPO4 buffer, pH 7.2, and was further used for synthesis. Met-hemoglobin (Hb, bovine) was purchased from Sigma. Protein solutions were prepared in the respective buffers used for synthesis and the concentrations determined from the Soret absorbance of Hb using extinction co-efficient 303,956 M^−1 cm^−1 at 407 nm. […]
(§3) Hb activity was monitored by the addition of guaiacol (substrate) and hydrogen peroxide (oxidant), and formation of the colored product has been monitored by its absorption at 470 nm as a function of time (FIG. 4). […]
(§4) Hb activity was followed by literature method, with minor modifications. Product absorbance at 470 nm was monitored as a function time of after the addition of H2O2 (1 mM) to Hb (5 μM) and o-methoxyphenol (2.5 mM). Initial rates and Michaelis-Menten parameters were calculated from the kinetic data by following standard protocols. […]

[2] = molecular target: T2, Hb-PAA-1k-7 nanocapsule (bovine met-hemoglobin conjugated to polyacrylic acid, synthesized at pH 7) (Bos taurus, UniProt P01966+P02070); assay: Peroxidase-like activity, Michaelis-Menten kinetics (guaiacol oxidation by H2O2, 470 nm), Hb-PAA-1k-7; assay type: biochemical; details: 1 μM Hb, 2.5 mM guaiacol, 1 mM H2O2
T2 construct: peroxidase-like activity with guaiacol/H2O2
Procedure: as §1, §2, §3, §4

T1 sequence (P01966 whole entry): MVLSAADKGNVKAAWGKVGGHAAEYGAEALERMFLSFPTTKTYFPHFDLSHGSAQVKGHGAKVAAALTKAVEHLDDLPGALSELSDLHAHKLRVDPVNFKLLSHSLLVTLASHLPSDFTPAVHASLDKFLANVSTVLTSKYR
T1 sequence (P02070 whole entry): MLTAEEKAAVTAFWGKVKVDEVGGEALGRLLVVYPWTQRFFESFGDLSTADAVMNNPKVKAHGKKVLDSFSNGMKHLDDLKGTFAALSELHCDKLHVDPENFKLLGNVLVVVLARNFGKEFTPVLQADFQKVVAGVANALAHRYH
T2 sequence (P01966 whole entry): as the sequence (P01966 whole entry) above
T2 sequence (P02070 whole entry): as the sequence (P02070 whole entry) above

- Vmax [1]: 0.0028 mM/s
- Vmax [2]: 0.0025 mM/s
SMILES: COc1ccccc1O [guaiacol, o-methoxyphenol]
